The source of these data is patent publication US10040804B2, “Compounds targeting proteins, compositions, methods, and uses thereof” (BioTheryX, Inc., priority 2016, dated 2018).

One test has as its system IL-1β. Put plainly: IL-1β expression in LPS stimulated PBMCs (Meso Scale). In kind it is cell-based, human. As to conditions: Homo sapiens, PBMC, compound concentration 1 μM. The method in brief: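 Human PBMCs (200,000 cells/well in RPMI-1640/10% FBS) were pretreated with compound for 1 h, then stimulated with 100 ng/mL LPS for 18-24 h. IL-1β in supernatant was measured by Meso Scale assay. Activity is expressed as percentage of LPS-induced level, with DMSO-treated wells as negative control.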

Another test deals with IL-6. Put plainly: IL-6 expression in LPS stimulated PBMCs (Meso Scale). It counts as cell-based, human. As to conditions: Homo sapiens, PBMC; compound concentration 1 μM; LPS-stimulated PBMCs. The gist of the method:
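Thawed human PBMCs at 200,000 cells/well in RPMI-1640/10% FBS were pretreated with compound or DMSO for 1 h, then stimulated with 100 ng/mL LPS for 18–24 h. Supernatant IL-6 was measured by Meso Scale assay and expressed as % of LPS-induced activity.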

In the next test the test system is TNF-α. Put plainly: TNF-α expression in LPS stimulated PBMCs (Meso Scale). It counts as cell-based, human. The settings on record: Homo sapiens, PBMC, compound concentration 1 μM. The method in brief: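 Thawed primary human PBMCs, 200,000 cells/well in RPMI-1640/10% FBS, pretreated with compound 1 h, then stimulated with 100 ng/mL LPS for 18-24 h. Supernatant TNF-α measured by Meso Scale assay; activity expressed as percentage of LPS-induced level, DMSO as negative control.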

A further test concerns IL-2. Briefly: anti-CD3-induced IL-2 secretion in PBMCs. As to conditions: Homo sapiens, PBMC; compound concentration 1 μM; anti-CD3 stimulated PBMCs, 24 h; DMSO = 1.0; read-out: Fold Change IL-2. In kind it is cell-based. The method in brief: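 PBMCs stimulated on plates coated with 1 ug/mL anti-CD3 (OKT3), with compound or DMSO, 24 h. Supernatant IL-2 measured by Mesoscale; activity expressed as fold difference from DMSO-stimulated control.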

The target in a further test is T1, GSPT1 (Homo sapiens, UniProt P15170).
T1 construct: Whole cell extracts were prepared using RIPA buffer according to manufacturer's protocol (Pierce); endogenous in cells
T1 sequence (P15170 whole entry): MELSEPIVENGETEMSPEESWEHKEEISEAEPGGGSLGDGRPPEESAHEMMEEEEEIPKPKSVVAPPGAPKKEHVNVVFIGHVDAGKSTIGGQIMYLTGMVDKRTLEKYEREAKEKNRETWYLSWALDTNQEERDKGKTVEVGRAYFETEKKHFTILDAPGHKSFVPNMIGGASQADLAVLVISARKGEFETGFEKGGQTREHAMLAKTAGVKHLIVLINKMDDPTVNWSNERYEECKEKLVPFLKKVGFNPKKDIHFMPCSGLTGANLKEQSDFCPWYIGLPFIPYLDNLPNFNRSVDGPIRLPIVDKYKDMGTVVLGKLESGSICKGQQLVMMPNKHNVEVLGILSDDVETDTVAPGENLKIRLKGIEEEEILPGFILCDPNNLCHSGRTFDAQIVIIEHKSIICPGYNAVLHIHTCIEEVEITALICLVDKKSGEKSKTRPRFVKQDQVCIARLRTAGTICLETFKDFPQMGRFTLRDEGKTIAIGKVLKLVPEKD
T1 sequence (Q96SW2 whole entry, further chain): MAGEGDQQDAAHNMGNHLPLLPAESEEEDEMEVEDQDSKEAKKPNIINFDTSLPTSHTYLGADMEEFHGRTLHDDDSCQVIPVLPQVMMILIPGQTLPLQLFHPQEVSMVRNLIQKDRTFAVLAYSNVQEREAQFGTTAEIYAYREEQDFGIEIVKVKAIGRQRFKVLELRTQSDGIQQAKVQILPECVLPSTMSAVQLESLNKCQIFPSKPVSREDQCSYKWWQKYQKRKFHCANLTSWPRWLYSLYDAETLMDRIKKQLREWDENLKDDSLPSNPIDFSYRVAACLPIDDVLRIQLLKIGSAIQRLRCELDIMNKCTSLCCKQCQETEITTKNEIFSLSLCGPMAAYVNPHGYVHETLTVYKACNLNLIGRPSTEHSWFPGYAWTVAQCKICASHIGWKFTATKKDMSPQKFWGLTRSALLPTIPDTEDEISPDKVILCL
T1 sequence (Q16531 whole entry partner): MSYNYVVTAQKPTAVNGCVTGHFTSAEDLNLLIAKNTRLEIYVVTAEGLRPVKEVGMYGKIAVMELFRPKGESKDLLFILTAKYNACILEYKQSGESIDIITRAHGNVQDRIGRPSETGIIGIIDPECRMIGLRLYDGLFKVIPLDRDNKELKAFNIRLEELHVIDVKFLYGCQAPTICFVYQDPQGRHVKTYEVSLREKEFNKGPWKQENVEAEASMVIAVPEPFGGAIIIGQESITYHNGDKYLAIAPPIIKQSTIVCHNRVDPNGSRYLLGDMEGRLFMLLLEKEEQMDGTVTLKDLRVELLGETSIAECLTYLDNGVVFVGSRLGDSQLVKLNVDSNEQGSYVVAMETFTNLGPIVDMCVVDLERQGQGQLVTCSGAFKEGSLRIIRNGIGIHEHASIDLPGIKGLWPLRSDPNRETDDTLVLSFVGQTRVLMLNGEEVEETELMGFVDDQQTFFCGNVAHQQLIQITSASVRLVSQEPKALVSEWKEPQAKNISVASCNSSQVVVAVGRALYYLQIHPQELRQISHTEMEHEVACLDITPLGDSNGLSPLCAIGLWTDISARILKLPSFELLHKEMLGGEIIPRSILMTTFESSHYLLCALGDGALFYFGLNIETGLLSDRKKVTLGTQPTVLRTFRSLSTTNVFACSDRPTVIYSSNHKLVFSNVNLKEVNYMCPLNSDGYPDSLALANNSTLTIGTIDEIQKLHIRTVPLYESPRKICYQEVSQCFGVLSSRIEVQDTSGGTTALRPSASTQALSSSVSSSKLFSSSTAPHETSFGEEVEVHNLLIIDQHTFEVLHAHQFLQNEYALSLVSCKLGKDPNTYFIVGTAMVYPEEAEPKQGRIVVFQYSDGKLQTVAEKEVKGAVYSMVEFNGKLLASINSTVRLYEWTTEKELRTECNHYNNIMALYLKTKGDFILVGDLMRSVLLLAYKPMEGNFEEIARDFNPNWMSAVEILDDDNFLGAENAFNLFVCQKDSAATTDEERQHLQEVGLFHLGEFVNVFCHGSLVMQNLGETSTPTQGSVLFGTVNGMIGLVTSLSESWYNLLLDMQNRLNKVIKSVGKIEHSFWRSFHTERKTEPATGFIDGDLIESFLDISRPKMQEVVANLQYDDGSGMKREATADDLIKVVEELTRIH
Put plainly: GSPT1 protein levels by Western Blot analysis. In kind it is cell-based. The settings on record: DMSO = 100.00; for remaining activity at 0.1 µM: 100 nM compound concentration; for remaining activity at 1 µM: 1 μM compound concentration. The method in brief:
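Molm-13 AML cells in RPMI 1640 with 10% FBS, about 10^6 cells/mL, treated with compound or DMSO for 6-8 h. RIPA whole-cell lysates resolved by SDS-PAGE, blotted and probed for GSPT1 with β-actin reference; IRDye secondary antibodies quantified by LI-COR Odyssey infrared imaging.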

Another test concerns H1048 cells. Put plainly: H1048 cell viability (CellTiter-Glo). As to conditions: Homo sapiens, NCI-H1048, 72 h, H1048, 3 days, DMSO = 100.00; for viability at 1 µM: 1 μM compound concentration; for viability at 10 µM: 10 μM compound concentration. In kind it is cell-based. The gist of the method:
(§1)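 Molm-13 (RPMI-1640, 10% FBS) and H1048 (DMEM:F12, 5% FBS with supplements) plated at 20,000 cells/well, treated with compound or 0.1% DMSO for 3 days at 37° C., 5% CO2. Viability read by CellTiter-Glo luminescence after 10 min.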
(In general: In ATP-based viability assays light output follows the ATP content of the culture.)

Another test deals with Molm-13 cells. Put plainly: Molm-13 cell viability (CellTiter-Glo). In kind it is cell-based. The settings on record: Homo sapiens, MOLM-13, read-out: % Inhibition (MOLM-13 Cell Viability). The method in brief: as §1
Another test relates to MDA-MB-231 cells. Put plainly: MDA-MB-231 cell viability (CellTiter-Glo). It counts as cell-based. The settings on record: Homo sapiens, 72 h, 3 days, DMSO = 100.00; for viability at 1 µM: 1 μM compound concentration; for viability at 10 µM: 10 μM compound concentration. The method in brief:
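Cells in DMEM with 10% FBS, seeded at 10,000 per well, exposed to compound (0.1% DMSO control) for 3 days at 37° C, 5% CO2. Viability read by CellTiter-Glo luminescence after 10 min shaking.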

For orientation: inhibition means the share of the control response that was lost under treatment. One may read the remaining activity as the activity still measured, relative to the control. Read a high remaining activity as much activity left. In general, viability refers to a read-out of living cells in per cent, often relative to untreated cells. Higher therefore signals better survival. Regarding `Cc1ccc(NC(=O)NCc2scc3c2CN([C@H]2CCCC(=O)NC2=O)C3=O)cc1C(C)C` [Compound 42, (S)-1-((5-(2,7-Dioxoazepan-3-yl)-4-oxo-5,6-dihydro-4H-thieno[3,4-c]pyrrol-1-yl)methyl)-3-(3-isopropyl-4-methylphenyl)urea], the inhibition at 1 µM in the test on IL-1β is 91%; with IL-6 it was 97%; in the test with TNF-α, 90%. In the test on IL-2, the fold induction at 1 µM stood at 0.4. The same compound yielded a remaining activity at 0.1 µM on GSPT1 of 50.7%. On GSPT1, this compound yielded a remaining activity at 1 µM of 8.44%. Also, the figures for the viability at 1 µM with H1048 cells and in the test on MDA-MB-231 cells were 8.7% and 57.6%, respectively. Also, the viability at 10 µM in the test on H1048 cells stood at 8.68%; in the test with MDA-MB-231 cells, 30.5%. Besides, the cytotoxicity at 0.8 µM in the test on Molm-13 cells (compound concentration 0.8 μM) came out at 50%.
`Cc1c(Cl)cc(NC(=O)NCc2scc3c2CN([C@H]2CCCC(=O)NC2=O)C3=O)cc1C(C)C` [Compound 43, (S)-1-(3-Chloro-5-isopropyl-4-methylphenyl)-3-((5-(2,7-dioxoazepan-3-yl)-4-oxo-5,6-dihydro-4H-thieno[3,4-c]pyrrol-1-yl)methyl)urea]: the results for the inhibition at 1 µM in the test with IL-1β, with IL-6 and in the test on TNF-α were 73%, 88% and 77%, respectively. For the same compound, the fold induction at 1 µM in the test on IL-2 turned out to be 0.5. On GSPT1, this compound yielded a remaining activity at 0.1 µM of 56%. Also, the remaining activity at 1 µM at GSPT1 was determined as 14.2%. In addition, the values for the viability at 1 µM with H1048 cells and in the test on MDA-MB-231 cells were 7.97% and 55.2%, respectively. For the same compound, the viability at 10 µM was 7.63% in the test on H1048 cells and 23.7% in the test on MDA-MB-231 cells. Further, the cytotoxicity at 10 µM in the test on Molm-13 cells (compound concentration 10 μM) was 100%.
As for `Cc1ccc(CNC(=O)NCc2cc3c(s2)C(=O)N(C2CCC(=O)NC2=O)C3)cc1Cl` (stereo not drawn) [Compound 44, 1-(3-Chloro-4-methylbenzyl)-3-((5-(2,6-dioxopiperidin-3-yl)-6-oxo-5,6-dihydro-4H-thieno[2,3-c]pyrrol-2-yl)methyl)urea], the inhibition at 1 µM was 45% in the test on IL-1β, 6% with IL-6 and 41% with TNF-α. For the same compound, the fold induction at 1 µM in the test on IL-2 stood at 1. This compound also displayed a remaining activity at 0.1 µM at GSPT1 of 57.3%. In addition, the remaining activity at 1 µM at GSPT1 was determined as 53.6%. Moreover, the viability at 1 µM in the test with H1048 cells came out at 13.8%; in the test with MDA-MB-231 cells it was 64.6%. Moreover, the viability at 10 µM is 14.3% in the test on H1048 cells and 56.5% in the test on MDA-MB-231 cells. Moreover, in the test with Molm-13 cells (compound concentration 0.1 μM), the cytotoxicity at 0.1 µM amounted to 50%.
